Test results: US20240002379A1, “ASYMMETRIC CONJUGATE COMPOUNDS” (Pheon Therapeutics Ltd., priority 2016, published 2024)

Columns and labels:
[1] = system: linear double-stranded 32P-end-labelled TyrT DNA fragment; test: DNA interstrand cross-linking assay, denaturing polyacrylamide gel; type: biochemical; settings: overnight incubation at 37° C., 10 concentrations tested, assay repeated twice
Experimental: The ability of 13 to cross-link DNA was determined using an assay involving a linear double-stranded TyrT fragment (FIG. 8).
Following denaturation conditions (treatment with formamide and heating at 65° C. for 5 min) the DNA strands were completely separated (see controls C2 and C4, FIG. 9). The presence of an interstrand cross-link holds the denatured strands in close proximity, and cross-linked adducts therefore run as double-stranded DNA on polyacrylamide gel.
The preparation of the TyrT DNA fragment (FIG. 8) and HexARev DNA fragment (FIG. 15) have been previously described (34). Briefly, the sequence which had been cloned into the BamHI site of pUC18 was obtained by cutting with HindIII and EcoRI. Radiolabelled DNA fragments were prepared by filling in the 3′-end of the HindIII site with [α-^32P]dATP using Klenow DNA polymerase (exo-).
The radiolabelled DNA fragment was separated from the remainder of the plasmid DNA on a 6% non-denaturing polyacrylamide gel. The gel (20 cm long, 0.3 mm thick) was run at 400 V in 1×TBE running buffer for about 1-2 h, until the bromophenol blue had run most of the way down the gel. The glass plates were separated and the position of the labelled DNA fragment was established by short (1 min) exposure to an X-ray film. […]

[2] = system: fluorescently labelled DNA duplex 5′-[…]-3′; test: FRET DNA melting, FIG. 13 top duplex (interstrand); type: binding
Source text: FRET DNA melting studies were undertaken on 13 using two fluorescently labelled sequences. The sequences (FIG. 13) were designed to provide additional evidence that 13 can form inter- and intrastrand cross-links. Inosines were inserted in place of traditional DNA bases to limit the number of binding sites available for 13 to interact with.
Oligonucleotides were obtained from ATDbio (Southampton, UK) in lyophilised form. They were labelled with a fluorophore molecule (F=fluorescein) at the 5′-end and a quencher molecule (Q=dabcyl) at the 3′-end of the complementary strand. Each oligonucleotide was dissolved in distilled H2O to form stock solutions of 100 PM. Working solutions of 5 μM were prepared by diluting the stock solution with distilled H2O. […]
The reaction mixture was comprised of 4 μL of 250 mM phosphate buffer (final concentration of 50 mM), 4 μL flourophor and 4 μL quencher molecule of the appropriate oligonucleotide for a final concentration of 0.2 PM, 4 μL 5 M sodium chloride (final concentration of 1 M NaCl), and 4 μL of distilled H2O. […] This mixture was analysed without prior annealing.
Fluorescence melting profiles were measured using a Roche LightCycler using a total reaction volume of 20 μL. […] Annealing steps and melting steps were all recorded and changes in fluorescence were measured at 520 nm. […]

Structure (SMILES): COc1cc2c(cc1OCCCC(=O)N1C[C@@H](CCl)c3c1cc(O)c1ccccc31)N=C[C@@H]1CCCCN1C2=O [Compound 13, (S)-3-(4-((S)-1-(Chloromethyl)-5-hydroxy-1,2-dihydro-3H-benzo[e]indol-3-yl)-4-oxobutoxy)-2-methoxy-7,8,9,10-tetrahydrobenzo[e]-pyrido[1,2-a][1,4]diazepin-12(6aH)-one]
- lowest concentration at which DNA cross-links are visible [1]: 10 nM
- change of melting temperature with compound concentration ([2]; FIG. 14 top panel): increases significantly
- Tm value ([2]; duplex alone melts below 30° C., suggests interstrand cross-link): ~65 °C
